According to patent publication US9732119B2, “Immunomodulators” (BRISTOL-MYERS SQUIBB COMPANY, priority 2014, dated 2017):
Positions of bridges follow the written chain, without caps; N, C: chain ends. Non-standard residues stand in square brackets, D forms with d. Residues, ends and D or L forms follow the SMILES beside them. Trp(1-CH2COOH) = N[C@@H](Cc1cn(CC(=O)O)c2ccccc12)C(=O)O; Phe(4-F) = N[C@@H](Cc1ccc(F)cc1)C(=O)O; Hyp = O=C(O)[C@@H]1C[C@@H](O)CN1; Aad = N[C@@H](CCCC(=O)O)C(=O)O; NMeNle = CCCC[C@H](NC)C(=O)O; dOrn = NCCC[C@@H](N)C(=O)O; Pip = O=C(O)[C@@H]1CCCCN1; NMeA = CN[C@@H](C)C(=O)O; Orn = NCCC[C@H](N)C(=O)O; Dab = NCC[C@H](N)C(=O)O; Dap = NC[C@H](N)C(=O)O

The compounds below were run against T1, PD-1-Ig binding to PD-L1-TVMV-His (PD-L1-His) (Homo sapiens, UniProt Q9NZQ7) (assay: PD-1/PD-L1 Homogenous Time-Resolved Fluorescence (HTRF) binding assay). Settings: PD-1-Ig (20 nM) / PD-L1-His (10 nM); numeric values.
T1 construct: hPDL1(19-239)-TVMV-His; made in house; host or cells: HEK293T cells
T1 sequence (Q9NZQ7 with tags, fused parts or gaps): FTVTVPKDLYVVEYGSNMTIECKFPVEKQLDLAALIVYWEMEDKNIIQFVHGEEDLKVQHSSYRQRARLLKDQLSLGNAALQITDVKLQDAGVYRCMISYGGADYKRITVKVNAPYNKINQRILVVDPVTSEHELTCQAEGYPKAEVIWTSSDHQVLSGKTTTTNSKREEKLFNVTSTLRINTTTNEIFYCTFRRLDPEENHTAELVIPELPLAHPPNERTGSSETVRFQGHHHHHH
Procedure, shortened: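 In dPBS with 0.1% BSA and 0.05% Tween-20, inhibitors were preincubated 15 min with 10 nM PD-L1-His before 20 nM PD-1-Ig was added for another 15 min. Binding read by time-resolved FRET between Eu-cryptate anti-Ig (1 nM) and APC anti-His (20 nM).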

| IC50 | Structure (SMILES) |
| --- | --- |
| 12 nM | CCCC[C@H]1C(=O)N(C)[C@@H](CCCC)C(=O)N[C@@H](CC(C)C)C(=O)NCCC[C@@H](N)C(=O)N[C@@H](Cc2ccc(F)cc2)C(=O)N2CCCC[C@H]2C(=O)N[C@@H](CC(N)=O)C(=O)N2CCC[C@H]2C(=O)N[C@@H](CN)C(=O)N[C@@H](CCC(=O)O)C(=O)N2C[C@H](O)C[C@H]2C(=O)N[C@@H](Cc2c[nH]c3ccccc23)C(=O)N[C@@H](CCN)C(=O)N[C@@H](Cc2cn(CC(=O)O)c3ccccc23)C(=O)N1C [Example 10570] (H-[dOrn][Phe(4-F)][Pip]NP[Dap]E[Hyp]W[Dab][Trp(1-CH2COOH)][NMeNle][NMeNle]L; lactam 1-C) |
| 70 nM | CCCC[C@H]1C(=O)N(C)[C@@H](CCCC)C(=O)N[C@@H](C)C(=O)N[C@H](C(=O)NCC(N)=O)CCCNCC(=O)N[C@@H](Cc2ccc(O)cc2)C(=O)N(C)[C@@H](C)C(=O)N[C@@H](CC(=O)O)C(=O)N2CCC[C@H]2C(=O)N[C@@H](Cc2cnc[nH]2)C(=O)N[C@@H](CCC(N)=O)C(=O)N2C[C@H](O)C[C@H]2C(=O)N[C@@H](Cc2c[nH]c3ccccc23)C(=O)N[C@@H](CO)C(=O)N[C@@H](Cc2c[nH]c3ccccc23)C(=O)N1C [Example 10013] |
| 15 nM | CCCC[C@H]1C(=O)N(C)[C@@H](CCCC)C(=O)N[C@@H](CC(C)C)C(=O)N[C@H](C(=O)NCC(N)=O)CNCC(=O)N[C@@H](Cc2ccc(F)cc2)C(=O)N(C)[C@@H](C)C(=O)N[C@@H](CC(=O)O)C(=O)N2CCC[C@H]2C(=O)N[C@@H](CCC(N)=O)C(=O)N[C@@H](CC(=O)O)C(=O)N2C[C@H](O)C[C@H]2C(=O)N[C@@H](Cc2c[nH]c3ccccc23)C(=O)N[C@@H](CC(N)=O)C(=O)N[C@@H](Cc2cn(CC(=O)O)c3ccccc23)C(=O)N1C [Example 9015] |

Same assay, conditions: PD-1-Ig (20 nM) / PD-L1-His (10 nM); range classes

| IC50 | Structure (SMILES) |
| --- | --- |
| 1 to 9.9 nM | CCCC[C@H]1C(=O)N(C)[C@@H](CCCC)C(=O)N[C@@H](CCC(=O)O)C(=O)N[C@H](C(N)=O)CNCC(=O)N[C@@H](Cc2ccc(O)cc2)C(=O)N2CCCC[C@H]2C(=O)N[C@@H](CC(N)=O)C(=O)N2CCC[C@H]2C(=O)N[C@@H](CCC(N)=O)C(=O)N[C@@H](CC(C)C)C(=O)N2C[C@H](O)C[C@H]2C(=O)N[C@@H](Cc2c[nH]c3ccccc23)C(=O)N[C@@H](CC(N)=O)C(=O)N[C@@H](Cc2cn(CC(=O)O)c3ccccc23)C(=O)N1C [Example 9042] |
| 1 to 9.9 nM | CCCC[C@H]1C(=O)N(C)[C@@H](CCCC)C(=O)N[C@@H](CCC(=O)O)C(=O)N[C@H](C(N)=O)CCCC(=O)N[C@@H](Cc2ccc(OC)cc2)C(=O)N2CCCC[C@H]2C(=O)N[C@@H](CC(N)=O)C(=O)N2CCC[C@H]2C(=O)N[C@@H](CN)C(=O)N[C@@H](CC(C)C)C(=O)N2C[C@H](O)C[C@H]2C(=O)N[C@@H](Cc2c[nH]c3ccccc23)C(=O)N[C@@H](CCN)C(=O)N[C@@H](Cc2cn(CC(=O)O)c3ccccc23)C(=O)N1C [Example 10563] (Y(Me)[Pip]NP[Dap]L[Hyp]W[Dab][Trp(1-CH2COOH)][NMeNle][NMeNle]E[Aad]-NH2; lactam N-14) |
| 1 to 9.9 nM | CCCC[C@H]1C(=O)N(C)[C@@H](CCCC)C(=O)N[C@@H](CCC(=O)O)C(=O)N[C@H](C(=O)NCC(N)=O)CNCC(=O)N[C@@H](Cc2ccc(O)cc2)C(=O)N(C)[C@@H](C)C(=O)N[C@@H](CC(N)=O)C(=O)N2CCC[C@H]2C(=O)N[C@@H](CCC(N)=O)C(=O)N[C@@H](CC(=O)O)C(=O)N2C[C@H](O)C[C@H]2C(=O)N[C@@H](Cc2c[nH]c3ccccc23)C(=O)N[C@@H](CC(N)=O)C(=O)N[C@@H](Cc2cn(CC(=O)O)c3ccccc23)C(=O)N1C [Example 9019] |
| 10 to 99 nM | CCCC[C@H]1C(=O)N(C)[C@@H](CCCC)C(=O)N[C@@H](CC(C)C)C(=O)NCCC[C@H](N)C(=O)N[C@@H](Cc2ccc(OC)cc2)C(=O)N2CCCC[C@H]2C(=O)N[C@@H](CC(N)=O)C(=O)N2CCC[C@H]2C(=O)N[C@@H](CN)C(=O)N[C@@H](CC(C)C)C(=O)N2C[C@H](O)C[C@H]2C(=O)N[C@@H](Cc2c[nH]c3ccccc23)C(=O)N[C@@H](CCN)C(=O)N[C@@H](Cc2cn(CC(=O)O)c3ccccc23)C(=O)N1C [Example 10518] (H-[Orn]Y(Me)[Pip]NP[Dap]L[Hyp]W[Dab][Trp(1-CH2COOH)][NMeNle][NMeNle]L; lactam 1-C) |
| 1 to 9.9 nM | CCCC[C@H]1C(=O)N(C)[C@@H](CCCC)C(=O)N[C@@H](CC(C)C)C(=O)N[C@H](C(=O)NCC(N)=O)CNCC(=O)N[C@@H](Cc2ccc(O)cc2)C(=O)N(C)[C@@H](C)C(=O)N[C@@H](CC(N)=O)C(=O)N2CCC[C@H]2C(=O)N[C@@H](CN)C(=O)N[C@@H](CC(C)C)C(=O)N2C[C@H](O)C[C@H]2C(=O)N[C@@H](Cc2c[nH]c3ccccc23)C(=O)N[C@@H](CCCN)C(=O)N[C@@H](Cc2cn(CC(=O)O)c3ccccc23)C(=O)N1C [Example 1036] |
| 1 to 9.9 nM | CCCC[C@H]1C(=O)N(C)[C@@H](CCCC)C(=O)N[C@@H](CCC(=O)O)C(=O)N[C@H](C(N)=O)CNCC(=O)N[C@@H](Cc2ccc(F)cc2)C(=O)N2CCCC[C@H]2C(=O)N[C@@H](CC(N)=O)C(=O)N2CCC[C@H]2C(=O)N[C@@H](CCC(N)=O)C(=O)N[C@@H](CC(C)C)C(=O)N2C[C@H](O)C[C@H]2C(=O)N[C@@H](Cc2c[nH]c3ccccc23)C(=O)N[C@@H](CC(N)=O)C(=O)N[C@@H](Cc2cn(CC(=O)O)c3ccccc23)C(=O)N1C [Example 9046] |
| 1 to 9.9 nM | CCCC[C@H]1C(=O)N(C)[C@@H](CCCC)C(=O)N[C@@H](CC(C)C)C(=O)N[C@H](C(N)=O)COCC(=O)N[C@@H](Cc2ccc(C)cc2)C(=O)N2CCCC[C@H]2C(=O)N[C@@H](CC(N)=O)C(=O)N2CCC[C@H]2C(=O)N[C@@H](CN)C(=O)N[C@@H](CCC(=O)O)C(=O)N2C[C@H](O)C[C@H]2C(=O)N[C@@H](Cc2c[nH]c3ccccc23)C(=O)N[C@@H](CCN)C(=O)N[C@@H](Cc2cn(CC(=O)O)c3ccccc23)C(=O)N1C [Example 10538] |
| 1 to 9.9 nM | CCCC[C@H]1C(=O)N(C)[C@@H](CCCC)C(=O)N[C@@H](CC(C)C)C(=O)NCC(=O)NCC(=O)N[C@@H](Cc2ccc(O)cc2)C(=O)N(C)[C@@H](C)C(=O)N[C@@H](CC(N)=O)C(=O)N2CCC[C@H]2C(=O)N[C@@H](CN)C(=O)N[C@@H](CC(C)C)C(=O)N2C[C@H](O)C[C@H]2C(=O)N[C@@H](Cc2c[nH]c3ccccc23)C(=O)N[C@@H](CCN)C(=O)N[C@@H](Cc2cn(CC(=O)O)c3ccccc23)C(=O)N1C [Example 5002] (cyclo([Dab][Trp(1-CH2COOH)][NMeNle][NMeNle]LGGY[NMeA]NP[Dap]L[Hyp]W)) |
| 100 to 10000 nM | CCCC[C@H]1C(=O)N(C)[C@@H](CCCC)C(=O)N[C@@H](CC(C)C)C(=O)N[C@H](C(=O)NCC(N)=O)CCNCC(=O)N[C@@H](Cc2ccccc2)C(=O)N(C)[C@@H](C)C(=O)N[C@@H](CC(C)C)C(=O)N2CCC[C@H]2C(=O)N[C@@H](CC(C)C)C(=O)N[C@@H](CC(C)C)C(=O)N2CCC[C@H]2C(=O)N[C@@H](Cc2c[nH]c3ccccc23)C(=O)N[C@@H](CC(C)C)C(=O)N[C@@H](Cc2c[nH]c3ccccc23)C(=O)N1C [Example 10009] |
| 10 to 99 nM | CCCC[C@H]1C(=O)N(C)[C@@H](CCCC)C(=O)NC(CC(C)C)C(=O)N[C@H](C(N)=O)CNCC(=O)N[C@@H](Cc2ccc(O)cc2)C(=O)N(C)[C@@H](C)C(=O)N[C@@H](CC(N)=O)C(=O)N2CCC[C@H]2C(=O)N[C@@H](CN)C(=O)N[C@@H](CC(C)C)C(=O)N2C[C@H](O)C[C@H]2C(=O)N[C@@H](Cc2c[nH]c3ccccc23)C(=O)N[C@@H](CCCCN)C(=O)N[C@@H](Cc2cn(CC(=O)O)c3ccccc23)C(=O)N1C (stereo partly shown) [Example 1033] |
